These are literature values, as cited in patent US10314848B2, “Use of testosterone and a 5-HT1A agonist in the treatment of sexual dysfunction” (EB IP LYBRIDOS B.V., priority 2006, dated 2019).

SMILES strings stand for the structures.

One may read the half-life as the time in which the quantity being followed falls by half.

Take `O=C(NCCN1CCN(c2cccc3c2OC[C@H](CO)O3)CC1)c1ccc(F)cc1` [flesinoxan]: the “Time to maximum plasma concentration” value (in vivo) was 1 to 2 h. Moreover, under “single doses”, the half-life was 5.5 h. `CCCc1nc(C)c2c(=O)nc(-c3cc(S(=O)(=O)N4CCN(CC)CC4)ccc3OCC)[nH]n12.Cl` [vardenafil, piperazine, 1-[[3-(1,4-dihydro-5-methyl-4-oxo-7-propylimidazo[5,1-f][1,2,4]triazin-2-yl)-4-ethoxyphenyl]sulfonyl]-4-ethyl-, monohydrochloride]: the “Time to peak plasma concentration after administration” value (in vivo) is “about 1 hour”.
